According to ChEMBL document CHEMBL6109143, “Adamantane-Quinoxalone Hybrids: Precision Chemotypes and Their Molecular Mechanisms in Acute Myeloid Leukemia” (J Med Chem, 2025):
pIC50: −log10 of the molar value. Where “and” joins values, the source holds several entries; their conditions need not be identical. Equal values may be shown once. Calls of active or inactive are those of the source. The rule behind the calls is not given here.

Legend:
[1] = test system: Kasumi 1; experiment: Cytotoxicity against human Kasumi 1 cells assessed as reduction in cell viability at 50 uM incubated for 24 hrs by MTT assay relative to control; type: functional
[2] = test system: Kasumi 1; experiment: Cytotoxicity against human Kasumi 1 cells harboring chromosomal translocation(8;21) assessed as reduction in cell viability incubated for 24 hrs by MTT assay; type: functional, cell-based; conditions: Kasumi 1, 24 h
[3] = test system: THP-1; experiment: Cytotoxicity against human THP-1 cells harboring chromosomal translocation(9;11) assessed as reduction in cell viability incubated for 24 hrs by MTT assay; type: functional, cell-based; conditions: THP-1, 24 h
[4] = test system: Kasumi 1; experiment: Downregulation of E2F target related genes in human Kasumi 1 cells at IC50 concentration incubated for 24 hrs by RNA sequencing analysis; type: functional, cell-based
[5] = test system: Kasumi 1; experiment: Induction of apoptosis in human Kasumi 1 cells assessed as late apoptotic cells at IC50 concentration incubated for 24 hrs by Annexin V/PI staining based flow cytometric analysis (reference value: 2.07 %); type: functional
[6] = test system: Kasumi 1; experiment: Upregulation of interferon-gamma response related genes in human Kasumi 1 cells at IC50 concentration incubated for 24 hrs by RNA sequencing analysis; type: functional, cell-based
[7] = test system: Kasumi 1; experiment: Upregulation of KLF2 gene expression in human Kasumi 1 cells at IC50 concentration incubated for 24 hrs by RNA sequencing analysis; type: functional, cell-based
[8] = test system: Kasumi 1; experiment: Downregulation of MELK protein expression in human Kasumi 1 cells at IC50 concentration incubated for 24 hrs by LC-MS/MS analysis; type: functional, cell-based
[9] = test system: Kasumi 1; experiment: Upregulation of CSF3R gene expression in human Kasumi 1 cells at IC50 concentration incubated for 24 hrs by RNA sequencing analysis; type: functional, cell-based
[10] = test system: Kasumi 1; experiment: Downregulation of TNF-alpha signaling related genes in human Kasumi 1 cells at IC50 concentration incubated for 24 hrs by RNA sequencing analysis; type: functional, cell-based
[11] = test system: Kasumi 1; experiment: Upregulation of DACH1 gene expression in human Kasumi 1 cells at IC50 concentration incubated for 24 hrs by RNA sequencing analysis; type: functional, cell-based
[12] = test system: Kasumi 1; experiment: Downregulation of MYCN gene expression in human Kasumi 1 cells at IC50 concentration incubated for 24 hrs by RNA sequencing analysis; type: functional, cell-based
[13] = test system: Kasumi 1; experiment: Downregulation of estrogen pathway related genes in human Kasumi 1 cells at IC50 concentration incubated for 24 hrs by RNA sequencing analysis; type: functional, cell-based
[14] = test system: Kasumi 1; experiment: Effect on mTORC1 signaling related protein expression in human Kasumi 1 cells by GSEA; type: functional, cell-based
[15] = Cytotoxicity against human Oral epithelial cells assessed as cell viability incubated for 24 hrs by MTT assay; type: toxicity, cell-based
[16] = test system: Kasumi 1; experiment: Effect on E2F target related protein expression in human Kasumi 1 cells by GSEA; type: functional, cell-based
[17] = test system: Kasumi 1; experiment: Downregulation of KRAS signaling pathway related genes in human Kasumi 1 cells at IC50 concentration incubated for 24 hrs by RNA sequencing analysis; type: functional, cell-based
[18] = test system: ARPE-19; experiment: Cytotoxicity against human ARPE-19 cells assessed as reduction in cell viability incubated for 24 hrs by MTT assay; type: toxicity, cell-based; conditions: arpe-19, 24 h
[19] = test system: Kasumi 1; experiment: Effect on hypoxia pathway related protein expression in human Kasumi 1 cells by GSEA; type: functional, cell-based
[20] = test system: MCF-10A; experiment: Cytotoxicity against human MCF-10A cells assessed as cell viability incubated for 24 hrs by MTT assay; type: toxicity, cell-based
[21] = test system: Kasumi 1; experiment: Induction of apoptosis in human Kasumi 1 cells assessed as necrotic apoptotic cells at IC50 concentration incubated for 24 hrs by Annexin V/PI staining based flow cytometric analysis (reference value: 0.12 %); type: functional
[22] = test system: Kasumi 1; experiment: Induction of cell cycle arrest in human Kasumi 1 cells assessed as increase in cells at G2/M phase at IC50 concentration incubated for 24 hrs by PI staining based flow cytometric analysis; type: functional
[23] = test system: MDA-MB-231; experiment: Cytotoxicity against human MDA-MB-231 cells assessed as cell viability at 1 to 50 uM incubated for 24 hrs by MTT assay; type: functional, cell-based; conditions: dose 1-50 µM
[24] = test system: Kasumi 1; experiment: Downregulation of HMMR gene expression in human Kasumi 1 cells at IC50 concentration incubated for 24 hrs by RNA sequencing analysis; type: functional, cell-based
[25] = test system: Kasumi 1; experiment: Downregulation of CDK1 protein expression in human Kasumi 1 cells at IC50 concentration incubated for 24 hrs by LC-MS/MS analysis; type: functional, cell-based
[26] = test system: Kasumi 1; experiment: Induction of cell cycle arrest in human Kasumi 1 cells assessed as increase in cells at G1 phase at IC50 concentration incubated for 24 hrs by PI staining based flow cytometric analysis (reference value: 66.25 %); type: functional
[27] = test system: Kasumi 1; experiment: Induction of apoptosis in human Kasumi 1 cells assessed as viable cells at IC50 concentration incubated for 24 hrs by Annexin V/PI staining based flow cytometric analysis (reference value: 95.43 %); type: functional
[28] = test system: Kasumi 1; experiment: Downregulation of CD109 gene expression in human Kasumi 1 cells at IC50 concentration incubated for 24 hrs by RNA sequencing analysis; type: functional, cell-based
[29] = test system: Kasumi 1; experiment: Effect on MYC target related protein expression in human Kasumi 1 cells by GSEA; type: functional, cell-based
[30] = test system: Kasumi 1; experiment: Downregulation of BCL6 gene expression in human Kasumi 1 cells at IC50 concentration incubated for 24 hrs by RNA sequencing analysis; type: functional, cell-based
[31] = test system: Kasumi 1; experiment: Effect on adipogenesis pathway related protein expression in human Kasumi 1 cells by GSEA; type: functional, cell-based
[32] = test system: Kasumi 1; experiment: Induction of cell cycle arrest in human Kasumi 1 cells assessed as increase in cells at S phase at IC50 concentration incubated for 24 hrs by PI staining based flow cytometric analysis (reference value: 27.09 %); type: functional
[33] = test system: Kasumi 1; experiment: Downregulation of KRAS signaling related genes in human Kasumi 1 cells at IC50 concentration incubated for 24 hrs by RNA sequencing analysis; type: functional, cell-based
[34] = test system: Kasumi 1; experiment: Induction of cell cycle arrest in human Kasumi 1 cells assessed as decrease in cells at S phase at IC50 concentration incubated for 24 hrs by PI staining based flow cytometric analysis; type: functional
[35] = test system: Kasumi 1; experiment: Induction of cell cycle arrest in human Kasumi 1 cells assessed as increase in cells at G2 phase at IC50 concentration incubated for 24 hrs by PI staining based flow cytometric analysis (reference value: 6.65 %); type: functional
[36] = test system: Kasumi 1; experiment: Upregulation of NR5A1 gene expression in human Kasumi 1 cells at IC50 concentration incubated for 24 hrs by RNA sequencing analysis; type: functional, cell-based
[37] = test system: CAL-27; experiment: Cytotoxicity against human CAL-27 cells assessed as cell viability at 1 to 50 uM incubated for 24 hrs by MTT assay; type: functional, cell-based; conditions: dose 1-50 µM
[38] = test system: Kasumi 1; experiment: Downregulation of UGFR1 gene expression in human Kasumi 1 cells at IC50 concentration incubated for 24 hrs by RNA sequencing analysis; type: functional, cell-based
[39] = test system: Kasumi 1; experiment: Upregulation of interferon-alpha response related genes in human Kasumi 1 cells at IC50 concentration incubated for 24 hrs by RNA sequencing analysis; type: functional, cell-based
[40] = test system: A549; experiment: Cytotoxicity against human A549 cells assessed as cell viability at 1 to 50 uM incubated for 24 hrs by MTT assay; type: functional, cell-based; conditions: dose 1-50 µM
[41] = test system: Kasumi 1; experiment: Downregulation of G2M checkpoint related genes in human Kasumi 1 cells at IC50 concentration incubated for 24 hrs by RNA sequencing analysis; type: functional, cell-based
[42] = test system: Kasumi 1; experiment: Effect on glycolysis pathway related protein expression in human Kasumi 1 cells by GSEA; type: functional, cell-based
[43] = test system: Kasumi 1; experiment: Induction of apoptosis in human Kasumi 1 cells assessed as early apoptotic cells at IC50 concentration incubated for 24 hrs by Annexin V/PI staining based flow cytometric analysis (reference value: 2.38 %); type: functional
[44] = test system: Kasumi 1; experiment: Effect on oxidative phosphorylation related protein expression in human Kasumi 1 cells by GSEA; type: functional, cell-based
[45] = test system: Kasumi 1; experiment: Downregulation of PIM1 gene expression in human Kasumi 1 cells at IC50 concentration incubated for 24 hrs by RNA sequencing analysis; type: functional, cell-based

## Cc1cc2c(cc1C)N(Cc1ccccc1)C(=O)C(C13CC4CC(CC(C4)C1)C3)N2 (configuration not stated)
[1]
  Activity: >30%

## O=C1C(C23CC4CC(CC(C4)C2)C3)Nc2ccccc2N1CC1CC1 (configuration not stated)
[2]
  pIC50: 4.33
[3]
  pIC50: < 4.30
[1]; 24 h, 50 µM
  Activity: <30% and >30%

## CCCCCCCCCCCCN1C(=O)C(C23CC4CC(CC(C4)C2)C3)Nc2ccccc21 (configuration not stated)
[1]
  Activity: >30%

## O=C1C(C23CC4CC(CC(C4)C2)C3)Nc2cc(Cl)c(Cl)cc2N1Cc1ccccc1 (configuration not stated)
[1]
  Activity: >30%

## C=CCCCCN1C(=O)C(C23CC4CC(CC(C4)C2)C3)Nc2ccccc21 (configuration not stated)
[1]
  Activity: >30%

## CCN1C(=O)C(C23CC4CC(CC(C4)C2)C3)Nc2ccccc21 (configuration not stated)
[1]
  Activity: >30%

## O=C1C(C23CC4CC(CC(C4)C2)C3)Nc2ccccc2N1Cc1cccc(-c2ccccc2)c1 (configuration not stated)
[1]
  Activity: >30%

## C=CCN1C(=O)C(C23CC4CC(CC(C4)C2)C3)Nc2ccccc21 (configuration not stated)
[2]
  pIC50: 4.43
[3]
  pIC50: < 4.30
[1]
  Activity: <30%

## O=C1C(C23CC4CC(CC(C4)C2)C3)Nc2ccccc2N1Cc1ccc(Br)cc1 (configuration not stated)
[1]
  Activity: >30%

## CN1C(=O)C(C23CC4CC(CC(C4)C2)C3)Nc2ccccc21 (configuration not stated)
[1]
  Activity: >30%

## O=C1C(C23CC4CC(CC(C4)C2)C3)Nc2cc3ccccc3cc2N1Cc1ccccc1 (configuration not stated)
[1]
  Activity: >30%

## CC(C)CCCC(C)CCN1C(=O)C(C23CC4CC(CC(C4)C2)C3)Nc2ccccc21 (configuration not stated)
[1]
  Activity: >30%

## Cc1ccccc1CN1C(=O)C(C23CC4CC(CC(C4)C2)C3)Nc2ccccc21 (configuration not stated)
[1]
  Activity: >30%

## O=C1C(C23CC4CC(CC(C4)C2)C3)Nc2ccccc2N1c1ccc2ccccc2c1 (configuration not stated)
[1]
  Activity: >30%

## CSc1ccc(CN2C(=O)C(C34CC5CC(CC(C5)C3)C4)Nc3ccccc32)cc1 (configuration not stated)
[1]
  Activity: >30%

## Cc1ccc(CN2C(=O)C(C34CC5CC(CC(C5)C3)C4)Nc3cc(-c4ccc5c(c4)NC(C46CC7CC(CC(C7)C4)C6)C(=O)N5Cc4ccc(C)cc4)ccc32)cc1 (configuration not stated)
[1]
  Activity: >30%

## O=C1C(C23CC4CC(CC(C4)C2)C3)Nc2ccccc2N1c1ccc(OC(F)(F)F)cc1 (configuration not stated)
[1]
  Activity: >30%

## O=C1C(C23CC4CC(CC(C4)C2)C3)Nc2ccccc2N1c1ccc(-c2ccccc2)cc1 (configuration not stated)
[1]
  Activity: >30%

## O=C1C(C23CC4CC(CC(C4)C2)C3)Nc2ccccc2N1Cc1ccccc1 (configuration not stated)
[1]
  Activity: >30%

## CC(C)CCN1C(=O)C(C23CC4CC(CC(C4)C2)C3)Nc2ccccc21 (configuration not stated)
[1]
  Activity: >30%

## Cc1ccc(CN2C(=O)C(C34CC5CC(CC(C5)C3)C4)Nc3ccccc32)cc1 (configuration not stated)
[1]
  Activity: >30%

## O=C1C(C23CC4CC(CC(C4)C2)C3)Nc2ccccc2N1Cc1ccc(F)cc1 (configuration not stated)
[1]
  Activity: >30%

## CCCCCCN1C(=O)C(C23CC4CC(CC(C4)C2)C3)Nc2ccccc21 (configuration not stated)
[1]
  Activity: >30%

## O=C1C(C23CC4CC(CC(C4)C2)C3)Nc2ccccc2N1c1ccccc1 (configuration not stated)
[4]
  Activity: Active
[5]
  Activity: 5.37%
[6]
  Activity: Active
[7]
  Activity: Active
[8]
  Activity: Active
[9]
  Activity: Active
[10]
  Activity: Active
[11]
  Activity: Active
[2]
  pIC50: 5.68
[3]
  pIC50: 4.39
[12]
  Activity: Active
[13]
  Activity: Active
[1]
  Activity: <30%
[14]
  Activity: Active
[15]
  Activity: Non-toxic
[16]
  Activity: Active
[17]
  Activity: Active
[18]
  Activity: Non-toxic
[19]
  Activity: Active
[20]
  Activity: Non-toxic
[21]
  Activity: 0.02%
[22]
  Activity: Active
[23]
  Activity: inactive
[24]
  Activity: Active
[25]
  Activity: Active
[26]
  Activity: 68.99%
[27]
  Activity: 83.88%
[28]
  Activity: Active
[29]
  Activity: Active
[30]
  Activity: Active
[31]
  Activity: Active
[32]
  Activity: 18.69%
[33]
  Activity: Active
[34]
  Activity: Active
[35]
  Activity: 12.31%
[36]
  Activity: Active
[37]
  Activity: inactive
[38]
  Activity: Active
[39]
  Activity: Active
[40]
  Activity: inactive
[41]
  Activity: Active
[42]
  Activity: Active
[43]
  Activity: 10.74%
[44]
  Activity: Active
[45]
  Activity: Active
